Experimental data as given in US20240417403A1, “CRYSTALLINE FORMS OF QUINAZOLINE DERIVATIVES, PREPARATION, COMPOSITION AND USE THEREOF” (Hoffmann-La Roche Inc., priority 2021, published 2024).
Values after ≈ are worked out from the molar mass of the structure shown. Read-outs that look alike come from different tables or passages of the source. Marks after values point to notes of the source that are not given here.

Columns and labels:
Format in all cases: physicochemical
[1] = Form change on storage/exposure at ambient conditions (XRPD); conditions: storage / exposure at ambient condition (Freebase Type E: 30 m)
Experimental: About 15 mg of Fumarate Type A of compound (I) was suspended in 0.5 mL of H2O in an HPLC vial. The suspension was magnetically stirred at a speed of about 1000 rpm at RT for 9 days. The wet solids were isolated to afford Fumarate Type C of compound (I) (wet sample was analyzed). […] XRPD patterns and data were shown in FIG. 10 and Table 10, respectively.
About 60 mg of Amorphous Freebase of compound (I) was suspended in 2 mL of THF/H2O (1:4, v/v) in an HPLC vial. The suspension was magnetically stirred at a speed of about 1000 rpm at 5° C. for 4 days. The solids were isolated via centrifugation and dried at ambient condition for about 2 hours. After sweeping the solids by N2 for 20 min at 30° C. Freebase Type E of compound (I) was obtained.

[2] = TGA and DSC/mDSC thermal analysis (characterization of forms); conditions: for TGA weight loss (%, temp.): to 150° C.
Experimental: In salt screening and evaluation and in polymorph study, TGA was performed using a TA Q500, TA Q5000 or Discovery 5500 TGA from TA Instruments. DSC or mDSC was performed using a TA Q200/Q2000 or Discovery 2500 DSC from TA Instruments.

[3] = Contact angle against water (wettability)
Experimental: The wettability of the solid forms was evaluated by the contact angle against water.

[4] = Solid state stability, 40° C./75% RH/open for 1 month (XRPD, HPLC purity); conditions: for Purity/Initial by HPLC area % / Form Change: 40° C., 75% RH, open; for Form Change: by XRPD
Experimental: (§1) An Agilent 1260 HPLC instrument was utilized and detailed chromatographic conditions for purity and solubility analysis were listed in Table 6.
To evaluate the solid state stability of the selected forms (amorphous freebase, Freebase Type F, Fumarate Type A and Fumarate Type B) samples were stored under 40° C./75% RH/open for 1 month. Stability samples were characterized by XRPD to check any solid form change and by HPLC to check purity change.

[5] = Equilibrium solubility in pH 4.5 buffer; conditions: 37° C., stirred 24 hours
Experimental: as §1
About 5˜10 mg of solids were suspended in pH 4.5 buffer to get a mixture. The suspensions were stirred for 24 hours, followed by centrifugation and filtration to obtain supernatants for HPLC test.

[6] = Equilibrium solubility in H2O; conditions: 37° C., stirred 24 hours
Experimental: as §1
About 5˜10 mg of solids were suspended in H2O to get a mixture. The suspensions were stirred for 24 hours, followed by centrifugation and filtration to obtain supernatants for HPLC test.

Crystal habit by PLM = test: Crystal habit by PLM
Text: The PLM images were captured with Carl Zeiss Axio Scope. A1 microscope at RT.
PLM was used to observe the crystal habit of the particles (amorphous freebase and Fumarate Type A).

[7] = Mechanical stability (XRPD form change after grinding and tableting); conditions: for XRPD form change after grinding: grinding ~5 min; for XRPD form change after tableting: tableting ~234 Mpa
Experimental: Mechanical stability of the solid forms was evaluated by monitoring the XRPD form change after grinding (˜5 min) and tableting (˜234 Mpa).

Hygroscopicity by DVS = test: Hygroscopicity by DVS
Experimental: DVS is measured via a SMS (Surface Measurement Systems) DVS Intrinsic. The relative humidity at 25° C. is calibrated against deliquescence point of LiCl, Mg(NO3)2 and KCl.
DVS isotherm plot was collected at 25° C. to investigate the selected solid forms stability as a function of humidity. Compared with amorphous freebase, the hygroscopicity of Freebase Type B, Fumarate Type A, Fumarate Type B and Fumarate Type E was lower under 80% RH/25° C.

[8] = Bulk density, tap density and Carr index (flowability and compressibility); conditions: listed as Freebase amorphous
Experimental: Bulk density was determined by adding appropriate amount (m) of material into a 5 mL graduate cylinder and recording its apparent volume (v0). The bulk density was obtained by dividing the amount of material by its apparent volume of the unsettled material (ρ0=m/v0). For tap density, the cylinder was then tapped for 200 times. The tap density was then calculated by dividing the amount of material by its final tapped volume (ρ1=m/v1). Carr index=(ρ1−ρ0)/ρ1.
(§2) The results of amorphous freebase, Freebase Type F, Fumarate Type B and Fumarate Type E for flowability and compressibility were summarized in Table 30. Generally, powders with smaller Karl index would show better compressibility and flowability. And powders with smaller angle of repose would show better flowability.

[9] = Equilibrium solubility in pH 6.8 buffer; conditions: 37° C., stirred 24 hours
Experimental: as §1
About 5˜10 mg of solids were suspended in pH 6.8 buffer to get a mixture. The suspensions were stirred for 24 hours, followed by centrifugation and filtration to obtain supernatants for HPLC test.

[10] = Angle of repose (flowability); conditions: listed as Freebase amorphous
Text: Form the angle of repose on a fixed base with a retaining lip to retain a layer of powder on the base. Carefully build up a symmetrical cone of powder. Determine the angle of repose by measuring the height (h) and base radius (r) of the cone of powder and calculating the angle of repose a from the following equation α=tan^−1(h/r).
as §2

[11] = Kinetic solubility in FaSSIF; conditions: FaSSIF, 37 °C, thermodynamic from solid
Experimental: as §1
Kinetic solubility of amorphous freebase and Fumarate Type B/E was measured in FaSSIF to evaluate the solubility. […] After centrifugation, supernatants were collected for HPLC tests.

[12] = Slurry competition (interconversion of free base forms at different water activity); conditions: slurry at 24 ±3° C.
Experimental: Slurry competition experiments were performed to study the interconversion relationship between Freebase Type B and Freebase Type C. […] The inter-conversion relationship among anhydrate Freebase Type B and hydrates Type C/F/G was further investigated under different water activities at RT. the saturated solution of Freebase Type B was obtained via slurry of Freebase Type B at RT overnight in corresponding solvent systems. A mixture of Freebase Type B+C+F+G was added into corresponding saturated solution of Freebase Type B to form suspensions. The suspensions were sampled for XRPD after being stirred for four days at a speed of 750 rpm under RT.

Compound	Form conversion at ambient conditions [1]	TGA weight loss (150° C., %) ([2]; crystalline salts) [%]	Form Change [4]	Solubility in pH 4.5 buffer [5] [mg/mL]	Solubility in H2O [6] [µg/mL]	Crystal habit of the particles (Crystal habit by PLM)	XRPD form change after grinding [7]	XRPD form change after tableting [7]	Hygroscopicity (in words) (Hygroscopicity by DVS)	Weight change at 80% RH/25° C. by DVS (Hygroscopicity by DVS) [%]	TGA weight loss (%, temp.) ([2]; free base forms)	also measured
COc1ccc2ncnc(Nc3ccc(Oc4cc5ncnn5cn4)c(C)c3)c2c1O[C@@H]1CCN(C)CC1(F)F [Fumarate Type C, (R)-N-(4-([1,2,4]triazolo[1,5-c]pyrimidin-7-yloxy)-3-methylphenyl)-5-((3,3-difluoro-1-methylpiperidin-4-yl)oxy)-6-methoxyquinazolin-4-amine]	Form conversion between Fumarate Type C and Fumarate Type B	1.5										
COc1ccc2ncnc(Nc3ccc(Oc4cc5ncnn5cn4)c(C)c3)c2c1O[C@@H]1CCN(C)CC1(F)F [Fumarate Type A, (R)-N-(4-([1,2,4]triazolo[1,5-c]pyrimidin-7-yloxy)-3-methylphenyl)-5-((3,3-difluoro-1-methylpiperidin-4-yl)oxy)-6-methoxyquinazolin-4-amine]		1.9	No	≥8.4	≥5000	rod-like particles with regular shape	No	No	slightly hygroscopic	0.8		Contact angle [3]: 20.3°; Purity/Initial by HPLC area % [4]: 100.1%; Purity change by HPLC (chemical stability) compared with amorphous freebase ([4]; 40° C./75% RH): lower purity change; Solid form change by XRPD (physical stability) ([4]; 40° C./75% RH/open): no form change; DSC endotherm (° C., peak) ([2]; crystalline salts): 167.6 °C; DSC endotherm (° C., peak) ([2]; fumarate forms): 167.6 °C; TGA weight loss (%, temp.) ([2]; fumarate forms): 1.9 (to 150° C.) %
COc1ccc2ncnc(Nc3ccc(Oc4cc5ncnn5cn4)c(C)c3)c2c1O[C@@H]1CCN(C)CC1(F)F [amorphous freebase, (R)-N-(4-([1,2,4]triazolo[1,5-c]pyrimidin-7-yloxy)-3-methylphenyl)-5-((3,3-difluoro-1-methylpiperidin-4-yl)oxy)-6-methoxyquinazolin-4-amine]			No	0.18	160 (≈ 292 µM)	irregular-shaped particles without defined boundary					1.9 (to 150° C.) %	Contact angle ([3]; listed as Freebase amorphous): 37.2°; Carr index ([8]; (ρ1−ρ0)/ρ1): 43.8%; Bulk density [8]: 0.23 g/mL; Tapped density ([8]; tapped 200 times): 0.40 g/mL; Purity/Initial by HPLC area % ([4]; listed as Freebase amorphous): 99.2%; Solubility in pH 6.8 buffer [9]: 0.15 mg/mL; Angle of repose [10]: 39.9°; solubility at 1 h ([11]; timepoint 1 h): 280 µg/mL (≈ 510 µM); solubility at 2 h ([11]; timepoint 2 h): 270 µg/mL (≈ 492 µM); solubility at 24 h ([11]; timepoint 24 h): 260 µg/mL (≈ 474 µM); Weight change at 80% RH/25° C. by DVS (Hygroscopicity by DVS; listed as Freebase amorphous): 4.2%; Tg, middle temperature ([2]; amorphous free base, starred value in DSC column): 58.7* ° C.
COc1ccc2ncnc(Nc3ccc(Oc4cc5ncnn5cn4)c(C)c3)c2c1O[C@@H]1CCN(C)CC1(F)F [Freebase Type E, (R)-N-(4-([1,2,4]triazolo[1,5-c]pyrimidin-7-yloxy)-3-methylphenyl)-5-((3,3-difluoro-1-methylpiperidin-4-yl)oxy)-6-methoxyquinazolin-4-amine]	converted to Freebase Type C											
COc1ccc2ncnc(Nc3ccc(Oc4cc5ncnn5cn4)c(C)c3)c2c1O[C@@H]1CCN(C)CC1(F)F [Freebase Type B, (R)-N-(4-([1,2,4]triazolo[1,5-c]pyrimidin-7-yloxy)-3-methylphenyl)-5-((3,3-difluoro-1-methylpiperidin-4-yl)oxy)-6-methoxyquinazolin-4-amine]				0.3			No	No	slightly hygroscopic	0.2	3.5 (to 150° C.) %	Critical water activity between Freebase Type B and Type C [12]: 0.8-1; DSC endotherm (° C., peak) ([2]; free base forms): 169.4 °C
